What was measured:
[1] = target: CDK12 wt/CycK (Homo sapiens (Human), UniProt Q9NYV4); assay: Radiometric protein kinase assay (33PanQinase), Assay Condition A (thiol containing); type: biochemical; conditions: thiol containing (1.2 mM DTT), ATP 0.3 μM
Method in brief: (§1)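 Recombinant human kinases assayed radiometrically (33PanQinase) with 33P-ATP incorporation into substrate, 60 min at 30° C, thiol-containing buffer, 1% DMSO final. Ten concentrations from 1×10^−04M to 3×10^−09M tested in singlicate. Residual activity normalized to no-enzyme and no-inhibitor controls; IC50 by least-squares fit.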

[2] = target: CDK12 (Homo sapiens (Human), UniProt Q9NYV4); assay: Radiometric protein kinase assay (33PanQinase), Assay Condition B (thiol-free); type: biochemical; conditions: thiol-free (1 mM TCEP)
Sequence of CDK12 (Q9NYV4 whole entry): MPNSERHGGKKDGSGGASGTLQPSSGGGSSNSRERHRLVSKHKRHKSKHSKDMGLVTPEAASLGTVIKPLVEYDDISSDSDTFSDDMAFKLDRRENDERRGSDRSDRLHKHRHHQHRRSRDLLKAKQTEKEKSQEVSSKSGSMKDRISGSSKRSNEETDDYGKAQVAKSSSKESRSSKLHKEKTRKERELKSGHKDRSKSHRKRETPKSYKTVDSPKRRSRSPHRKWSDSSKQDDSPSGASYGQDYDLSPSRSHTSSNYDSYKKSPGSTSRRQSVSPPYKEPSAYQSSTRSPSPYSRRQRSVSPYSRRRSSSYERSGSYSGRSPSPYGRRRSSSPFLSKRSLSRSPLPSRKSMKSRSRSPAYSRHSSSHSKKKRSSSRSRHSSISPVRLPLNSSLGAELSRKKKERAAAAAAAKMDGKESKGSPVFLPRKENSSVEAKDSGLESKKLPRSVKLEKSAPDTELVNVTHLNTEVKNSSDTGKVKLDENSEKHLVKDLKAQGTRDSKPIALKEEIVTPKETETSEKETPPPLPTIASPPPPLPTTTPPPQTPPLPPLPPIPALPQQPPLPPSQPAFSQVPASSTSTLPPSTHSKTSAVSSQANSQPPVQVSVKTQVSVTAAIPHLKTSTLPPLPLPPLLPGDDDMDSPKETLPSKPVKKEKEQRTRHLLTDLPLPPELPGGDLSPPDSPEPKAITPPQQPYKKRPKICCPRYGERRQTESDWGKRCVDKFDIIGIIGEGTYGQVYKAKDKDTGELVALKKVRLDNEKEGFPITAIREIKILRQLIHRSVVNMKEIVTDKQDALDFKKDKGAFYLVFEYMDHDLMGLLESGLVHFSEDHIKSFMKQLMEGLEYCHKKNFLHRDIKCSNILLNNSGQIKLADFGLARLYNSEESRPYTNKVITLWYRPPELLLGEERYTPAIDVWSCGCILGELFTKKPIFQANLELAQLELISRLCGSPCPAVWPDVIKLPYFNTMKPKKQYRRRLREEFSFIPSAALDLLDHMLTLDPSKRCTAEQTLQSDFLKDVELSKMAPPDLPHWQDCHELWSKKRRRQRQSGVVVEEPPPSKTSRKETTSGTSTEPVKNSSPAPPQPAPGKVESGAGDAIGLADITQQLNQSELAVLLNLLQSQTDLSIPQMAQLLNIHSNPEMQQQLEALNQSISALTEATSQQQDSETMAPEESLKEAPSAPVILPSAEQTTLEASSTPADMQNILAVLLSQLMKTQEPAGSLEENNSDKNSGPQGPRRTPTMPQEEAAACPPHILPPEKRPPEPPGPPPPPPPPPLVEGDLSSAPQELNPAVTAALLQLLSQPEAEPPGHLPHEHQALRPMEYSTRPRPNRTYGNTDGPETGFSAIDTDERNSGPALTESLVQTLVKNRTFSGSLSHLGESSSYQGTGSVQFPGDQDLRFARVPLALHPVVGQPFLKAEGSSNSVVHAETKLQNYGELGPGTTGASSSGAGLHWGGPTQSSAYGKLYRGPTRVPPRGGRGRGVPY
Sequence of CDK12 (O75909 whole entry partner): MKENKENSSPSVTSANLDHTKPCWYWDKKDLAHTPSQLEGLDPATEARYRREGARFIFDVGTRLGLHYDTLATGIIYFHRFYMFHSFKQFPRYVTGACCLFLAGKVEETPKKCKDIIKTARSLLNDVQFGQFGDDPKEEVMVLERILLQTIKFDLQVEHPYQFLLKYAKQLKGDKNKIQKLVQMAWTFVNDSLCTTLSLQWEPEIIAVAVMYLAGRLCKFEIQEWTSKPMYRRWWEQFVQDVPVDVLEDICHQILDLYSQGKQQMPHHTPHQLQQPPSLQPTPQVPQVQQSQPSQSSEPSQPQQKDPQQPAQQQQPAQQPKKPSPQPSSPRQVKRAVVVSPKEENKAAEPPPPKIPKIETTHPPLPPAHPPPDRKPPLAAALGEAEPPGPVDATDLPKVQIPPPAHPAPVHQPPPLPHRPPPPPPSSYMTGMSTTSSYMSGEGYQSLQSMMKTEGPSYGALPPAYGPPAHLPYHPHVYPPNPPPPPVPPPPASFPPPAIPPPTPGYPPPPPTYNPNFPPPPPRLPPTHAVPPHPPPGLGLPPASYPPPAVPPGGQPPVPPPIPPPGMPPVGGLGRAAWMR
Description: The IC50 profile of compounds was determined using one protein kinase in a customized, thiol free assay. […] Prior to testing, the 1×10^−03 M stock solutions in column 2 of the master plates were subjected to a serial, semi-logarithmic dilution using 100% DMSO as a solvent. […] Column 1 and 7 were filled with 100% DMSO as controls. Subsequently, 2×10 microliter from each well of the serial diluted copy plates were aliquoted with a 96 channel pipettor into two identical sets of “compound dilution plates”. All plates were barcoded for automated identification and tracking purposes. […] All compounds were stored as powder until being solubilized in DMSO. Solubilized compounds were stored as 1×10^−02M/100% DMSO stock solutions. Prior to the assay process, 90 microliters of H2O were added to each well of a set of compound dilution plates. To minimize potential precipitation, the H2O was added to each plate only a few minutes before the transfer of the compound solutions into the assay plates. Each plate was shaken thoroughly, resulting in compound dilution plates with a final of 10% DMSO. For each assay, 5 microliters of solution from each well of the compound dilution plates/10% DMSO were transferred into the assay plate. The final volume of the assay was 50 μl. All compounds were tested at 10 final assay concentrations in the range from 1×10^−05M to 3×10^−10 M, in singlicate. The final DMSO concentration in the reaction cocktails was 1% in all cases. […] This was done so there would be no interference with the key cysteines in the proteins of interest.
For data analysis, the median value of the counts in column 1 (n=8) of each assay plate was defined as “low control”. This value reflects unspecific binding of radioactivity to the plate in the absence of a protein kinase but in the presence of the substrate. The median value of the counts in column 7 of each assay plate (n=8) was taken as the “high control”, i.e. full activity in the absence of any inhibitor. The difference between high and low control was taken as 100% activity. As part of the data evaluation the low control value from a particular plate was subtracted from the high control value as well as from all 80 “compound values” of the corresponding plate. The residual activity (in %) for each well of a particular plate was calculated by using the following formula: Res. Activity (%)=100×[(cpm of compound−low control)/(high control−low control)]
The fitting method used was a least-squares fit.

[3] = target: CDK2/CycA2 (Homo sapiens (Human), UniProt P24941); assay: Radiometric protein kinase assay (33PanQinase), Assay Condition A (thiol containing); type: biochemical; conditions: thiol containing (1.2 mM DTT), ATP 0.3 μM
Method in brief: as §1

[4] = target: CDK7/CycH/MAT1 (Homo sapiens (Human), UniProt P50613); assay: as above; type: biochemical; conditions: thiol containing (1.2 mM DTT), ATP 3.0 μM
Sequence of CDK7/CycH/MAT1 (P50613 whole entry): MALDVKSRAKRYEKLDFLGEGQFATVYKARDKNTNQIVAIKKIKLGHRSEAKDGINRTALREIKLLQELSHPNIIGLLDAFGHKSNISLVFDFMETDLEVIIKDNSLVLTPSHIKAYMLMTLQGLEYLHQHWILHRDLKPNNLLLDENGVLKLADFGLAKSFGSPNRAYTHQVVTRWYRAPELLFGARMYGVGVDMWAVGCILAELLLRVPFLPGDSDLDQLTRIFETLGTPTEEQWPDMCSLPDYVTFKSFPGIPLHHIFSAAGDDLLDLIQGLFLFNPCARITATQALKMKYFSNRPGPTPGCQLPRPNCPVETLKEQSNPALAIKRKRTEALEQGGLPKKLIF
Sequence of CDK7/CycH/MAT1 (P51946 whole entry partner): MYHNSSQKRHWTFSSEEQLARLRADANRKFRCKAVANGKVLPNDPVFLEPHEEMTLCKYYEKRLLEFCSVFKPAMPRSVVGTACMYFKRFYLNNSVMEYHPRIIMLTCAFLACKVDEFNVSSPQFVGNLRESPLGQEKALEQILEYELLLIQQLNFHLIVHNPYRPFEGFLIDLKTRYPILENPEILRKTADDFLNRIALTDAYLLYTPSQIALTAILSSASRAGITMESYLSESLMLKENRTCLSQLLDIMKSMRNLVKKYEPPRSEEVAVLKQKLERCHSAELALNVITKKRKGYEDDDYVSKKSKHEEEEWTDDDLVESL
Sequence of CDK7/CycH/MAT1 (P51948 whole entry partner): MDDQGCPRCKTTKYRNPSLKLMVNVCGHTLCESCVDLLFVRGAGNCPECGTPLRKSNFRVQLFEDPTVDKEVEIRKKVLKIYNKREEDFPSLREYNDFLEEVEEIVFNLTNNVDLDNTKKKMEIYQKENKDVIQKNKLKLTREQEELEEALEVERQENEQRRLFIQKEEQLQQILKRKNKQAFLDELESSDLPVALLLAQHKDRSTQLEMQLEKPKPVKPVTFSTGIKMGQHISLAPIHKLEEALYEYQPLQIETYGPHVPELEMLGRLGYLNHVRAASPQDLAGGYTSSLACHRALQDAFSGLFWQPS
Method in brief: as §1

[5] = target: CDK2 (Homo sapiens (Human), UniProt P24941); assay: Radiometric protein kinase assay (33PanQinase), Assay Condition B (thiol-free); type: biochemical; conditions: thiol-free (1 mM TCEP)
Description: The IC50 profile of compounds was determined using one protein kinase in a customized, thiol free assay. […] Prior to testing, the 1×10^−03 M stock solutions in column 2 of the master plates were subjected to a serial, semi-logarithmic dilution using 100% DMSO as a solvent. […] Column 1 and 7 were filled with 100% DMSO as controls. Subsequently, 2×10 microliter from each well of the serial diluted copy plates were aliquoted with a 96 channel pipettor into two identical sets of “compound dilution plates”. All plates were barcoded for automated identification and tracking purposes. […] All compounds were stored as powder until being solubilized in DMSO. Solubilized compounds were stored as 1×10^−02M/100% DMSO stock solutions. Prior to the assay process, 90 microliters of H2O were added to each well of a set of compound dilution plates. To minimize potential precipitation, the H2O was added to each plate only a few minutes before the transfer of the compound solutions into the assay plates. Each plate was shaken thoroughly, resulting in compound dilution plates with a final of 10% DMSO. For each assay, 5 microliters of solution from each well of the compound dilution plates/10% DMSO were transferred into the assay plate. The final volume of the assay was 50 μl. All compounds were tested at 10 final assay concentrations in the range from 1×10^−05M to 3×10^−10 M, in singlicate. The final DMSO concentration in the reaction cocktails was 1% in all cases. […]
For data analysis, the median value of the counts in column 1 (n=8) of each assay plate was defined as “low control”. This value reflects unspecific binding of radioactivity to the plate in the absence of a protein kinase but in the presence of the substrate. […] The residual activity (in %) for each well of a particular plate was calculated by using the following formula: Res. Activity (%)=100×[(cpm of compound−low control)/(high control−low control)]
The residual activities for each concentration and the compound IC50 values were calculated using Quattro Workflow V3.1.1 (Quattro Research GmbH, Munich, Germany; www.quattro-research.com). […]

[6] = tested on: panel of 1,151 cancer cell lines; conditions: in 52% of a panel of 1,151 cancer cell lines (Kwiatkowski, 2014); cited from earlier work

Sequence of CDK12 wt/CycK (Q9NYV4 whole entry): as the sequence (Q9NYV4 whole entry) above
Sequence of CDK12 wt/CycK (O75909 whole entry partner): as the sequence (O75909 whole entry partner) above

Row | Structure (SMILES) | IC50 [1] | IC50 [2] | IC50 [3] | IC50 [4] | IC50 [5] | IC50 [6]
1 | C=CC(=O)Nc1ccc(C(=O)N2CC[C@@H](Nc3ncc4ccccc4n3)C2)cc1 [Example 26, (R)-N-(4-(3-(quinazolin-2-ylamino)pyrrolidine-1-carbonyl)phenyl)acrylamide] | ≤ 100 nM | < 100 nM | – | – | – | –
2 | C=CC(=O)Nc1ccc(C(=O)N2CC[C@@H](Nc3ncc4cc(F)ccc4n3)C2)cc1 [Example 28, (R)-N-(4-(3-((6-fluoroquinazolin-2-yl)amino)pyrrolidine-1-carbonyl)phenyl)acrylamide] | ≤ 100 nM | < 100 nM | – | – | – | –
3 | C=CC(=O)Nc1ccc(C(=O)N2CC[C@@H](Nc3ncc4ccc(S(C)(=O)=O)cc4n3)C2)cc1 [Example 33, (R)-N-(4-(3-((7-(methylsulfonyl)quinazolin-2-yl)amino)pyrrolidine-1-carbonyl)phenyl)acrylamide] | ≤ 100 nM | < 100 nM | – | – | – | –
4 | C=CC(=O)Nc1ccc(C(=O)N2CC[C@@H](Nc3ncc4ccc(OC)cc4n3)C2)cc1 [Example 34, (R)-N-(4-(3-((7-methoxyquinazolin-2-yl)amino)pyrrolidine-1-carbonyl)phenyl)acrylamide] | ≤ 100 nM | < 100 nM | – | – | – | –
5 | C=CC(=O)Nc1ccc(C(=O)N2CC[C@@H](Nc3ncc4ccc(C#N)cc4n3)C2)cc1 [Example 37, (R)—N-(4-(3-((7-cyanoquinazolin-2-yl)amino)pyrrolidine-1-carbonyl)phenyl)acrylamide] | ≤ 100 nM | < 100 nM | – | – | – | –
6 | C=CC(=O)Nc1ccc(C(=O)N2CC[C@@H](Nc3ncc4ccc(=O)n(C(C)C)c4n3)C2)cc1 [Example 43, (R)—N-(4-(3-((8-isopropyl-7-oxo-7,8-dihydropyrido[2,3-d]pyrimidin-2-yl)amino)pyrrolidine-1-carbonyl)phenyl)acrylamide] | ≤ 100 nM | < 100 nM | – | – | – | –
7 | CCC(=O)Nc1ccc(C(=O)N2CC[C@@H](Nc3ncc4ccccc4n3)C2)cc1 [Example 44, (R)—N-(4-(3-(quinazolin-2-ylamino)pyrrolidine-1-carbonyl)phenyl)propionamide] | 100 to 1000 nM | 100 to 1000 nM | – | – | – | –
8 | C=CC(=O)Nc1ccc(C(=O)N2CC[C@@H](Nc3ncc4ccccc4n3)C2)cc1F [Example 62, (R)—N-(2-fluoro-4-(3-(quinazolin-2-ylamino)pyrrolidine-1-carbonyl)phenyl)acrylamide] | ≤ 100 nM | < 100 nM | – | – | – | –
9 | C=CC(=O)Nc1ccc(C(=O)N2CC[C@@H](Nc3ncc4ccccc4n3)C2)cc1C [Example 72, (R)—N-(2-methyl-4-(3-(quinazolin-2-ylamino)pyrrolidine-1-carbonyl)phenyl)acrylamide] | ≤ 100 nM | < 100 nM | 1000 to 10000 nM | 1000 to 10000 nM | 1000 to 10000 nM | –
10 | C=CC(=O)N(C)c1ccc(C(=O)N2CC[C@@H](Nc3ncc4ccccc4n3)C2)cc1 [Example 74, (R)—N-methyl-N-(4-(3-(quinazolin-2-ylamino)pyrrolidine-1-carbonyl)phenyl)acrylamide] | – | – | 1000 to 10000 nM | – | 1000 to 10000 nM | –
11 | C=CC(=O)Nc1ccc(C(=O)N2CC[C@@H](Nc3ncc4ccccc4n3)C2)cc1Cl [Example 88, (R)—N-(2-chloro-4-(3-(quinazolin-2-ylamino)pyrrolidine-1-carbonyl)phenyl)acrylamide] | ≤ 100 nM | < 100 nM | 1000 to 10000 nM | – | 1000 to 10000 nM | –
12 | C=CC(=O)Nc1ccc(C(=O)N2CC[C@@H](Nc3ncc4cc(F)ccc4n3)C2)cc1C [Example 92, (R)—N-(4-(3-((6-fluoroquinazolin-2-yl)amino)pyrrolidine-1-carbonyl)-2-methylphenyl)acrylamide] | ≤ 100 nM | – | 1000 to 10000 nM | 1000 to 10000 nM | – | –
13 | C=CC(=O)Nc1ccc(C(=O)N2CC[C@@H](Nc3ncc4ccc(S(C)(=O)=O)cc4n3)C2)cc1C [Example 93, (R)—N-(2-methyl-4-(3-((7-(methylsulfonyl)quinazolin-2-yl)amino)pyrrolidine-1-carbonyl)phenyl)acrylamide] | ≤ 100 nM | – | 100 to 1000 nM | 1000 to 10000 nM | – | –
14 | C=C(CC)C(=O)Nc1ccc(C(=O)N2CC[C@@H](Nc3ncc4ccccc4n3)C2)cc1 [Example 94, (R)-2-methylene-N-(4-(3-(quinazolin-2-ylamino)pyrrolidine-1-carbonyl)phenyl)butanamide] | 100 to 1000 nM | – | 1000 to 10000 nM | 1000 to 10000 nM | – | –
15 | C=CS(=O)(=O)Nc1ccc(C(=O)N2CC[C@@H](Nc3ncc4ccccc4n3)C2)cc1 [Example 95, (R)—N-(4-(3-(quinazolin-2-ylamino)pyrrolidine-1-carbonyl)phenyl)ethenesulfonamide] | 100 to 1000 nM | – | 1000 to 10000 nM | 100 to 1000 nM | – | –
16 | C=CC(=O)Nc1ccc(C(=O)N2C[C@H](Nc3ncc4ccccc4n3)[C@@H](C)C2)cc1 [Example 96, N-(4-((3S,4R)-3-methyl-4-(quinazolin-2-ylamino)pyrrolidine-1-carbonyl)phenyl)acrylamide] | 1000 to 10000 nM | – | 30000 to 100000 nM | 10000 to 30000 nM | – | –
17 | CN(C)C/C=C/C(=O)Nc1ccc(C(=O)Nc2cccc(Nc3ncc(Cl)c(-c4c[nH]c5ccccc45)n3)c2)cc1 [THZ1] | – | – | – | – | – | < 200 nM

Reference: patent publication US11447493B2 (Kinnate Biopharma Inc., priority 2018, dated 2022)
